Measured values taken from patent US20040242485A1, “Compositions and methods for the amelioration of leptin resistance” (priority 2003, published 2004).

Key:
Type in all cases: in vivo, mouse
[1] = amelioration of leptin resistance (food intake and body weight after leptin) by β3 adrenergic receptor agonist in IR S-2 knockout mice; conditions: repeated intraperitoneal administration for 2 weeks, then leptin 20 mg/kg intraperitoneally, 12 hours after leptin, FIG. 4
Experimental: Moreover, as a control, for the case without intraperitoneal administration of leptin, in which 10 ml/kg of body weight of Tragacanth gum was repeatedly administered orally for 2 weeks, or in which 10 ml/kg of body weight of physiological saline solution was repeatedly intraperitoneally administered for 2 weeks instead of CL-316243, the changes in the amount of food intake, and the changes in body weight (%) were measured.

[2] = changes in body weight after intraperitoneal administration of leptin, wild-type mice; conditions: 8-week wild-type mice; leptin 10 mg/kg of body weight intraperitoneally; 12 hours after administration; FIG. 1
Experimental: For the case where 10 mg/kg of body weight of leptin was intraperitoneally administered into the 8-week wild-type mouse, followed by food intake, the changes in body weight (%) after 12 hours of administration of leptin were measured. Moreover, (i) for the case where 10 mg/kg of body weight or 50 mg/kg of body weight of leptin was intraperitoneally administered into the 8-week IR S-2 knockout mouse, followed by food intake, the changes in body weight (%) after 12 hours of administration of leptin were measured. Furthermore, as a control, for the case where physiological saline was administered instead of leptin to the 8-week wild-type and IR S-2 knockout mice, the changes in body weight (%) were measured. In FIG. 1, (a) is a result for the case in which the physiological saline was administered; (b) is a result for the case in which […] of body weight of leptin was intraperitoneally administered; and (c) is a result for the case in which […] of body weight of leptin was intraperitoneally administered. In FIG. 1, as well as in other figures, the values are expressed as means±S.E. (n=5−9); **, p<0.01; ***, p<0.001; and “N.S.” not significant. The statistical significances of the differences in body weight, etc. were determined by Student's t test (two-tailed).

[3] = changes in body weight after intraperitoneal administration of leptin, IR S-2 knockout mice; conditions: 8-week IR S-2 knockout mice, 12 hours after administration, FIG. 1
From the text: Insulin receptor substrate-2 (IR S-2) knockout mice were produced according to Kubota N. et al., Diabetes, November 2000, 49(11), 1880-9. Then, the IR S-2 gene (shown in the upper portion of FIG. 5) was screened from the mouse genome DNA library, and a targeting vector indicated in the middle of FIG. 5 was produced. The targeting vector was introduced into the TT2 ES cell, and ES cell clone with a recombinant was selected (shown in the lower portion of FIG. 5), which was introduced into the 8-celled embryo, thereby obtaining a chimera organism. […]
For the case where 10 mg/kg of body weight of leptin was intraperitoneally administered into the 8-week wild-type mouse, followed by food intake, the changes in body weight (%) after 12 hours of administration of leptin were measured. Moreover, (i) for the case where 10 mg/kg of body weight or 50 mg/kg of body weight of leptin was intraperitoneally administered into the 8-week IR S-2 knockout mouse, followed by food intake, the changes in body weight (%) after 12 hours of administration of leptin were measured. Furthermore, as a control, for the case where physiological saline was administered instead of leptin to the 8-week wild-type and IR S-2 knockout mice, the changes in body weight (%) were measured. […] The statistical significances of the differences in body weight, etc. were determined by Student's t test (two-tailed).

[4] = changes in body weight after continuous ventricular administration of leptin, wild-type mice; conditions: 14-week wild-type mice; continuous ventricular leptin 10 ng/hr; after one week; FIG. 2
Experimental: (§1) In a case where a canula was implanted ventricuarly to a 14-week wild-type mouse, and after starting the continuous ventricular administration of leptin (10 ng/hr), followed by food intake at will, the changes in body weigh (%) were measured after one week of said leptin administration.

[5] = changes in body weight after continuous ventricular administration of leptin, IR S-2 knockout mice; conditions: continuous ventricular leptin 10 ng/hr, after one week, FIG. 2
From the text: Insulin receptor substrate-2 (IR S-2) knockout mice were produced according to Kubota N. et al., Diabetes, November 2000, 49(11), 1880-9. Then, the IR S-2 gene (shown in the upper portion of FIG. 5) was screened from the mouse genome DNA library, and a targeting vector indicated in the middle of FIG. 5 was produced. The targeting vector was introduced into the TT2 ES cell, and ES cell clone with a recombinant was selected (shown in the lower portion of FIG. 5), which was introduced into the 8-celled embryo, thereby obtaining a chimera organism. A male chimeric organism was bred with a C57BL/6J female, thereby obtaining hetero-IR S-2 knockout mice, in which a recombinant gene has been introduced into the germ line. These hetero-knockout mice were bred with each other, thereby obtaining homo-IR S-2 knockout mice.
as §1

For `CC(Cc1ccc2c(c1)OC(C(=O)[O-])(C(=O)[O-])O2)NCC(O)c1cccc(Cl)c1.[Na+].[Na+]` (stereo not drawn) [CL-316243], the “leptin resistance (changes in food intake (%) and body weight (%) after leptin)” value [1] was “leptin resistance in IR S-2 knockout mice is ameliorated”.

For “leptin: hormone secreted from adipose tissues, regulates appetite and energy metabolism”, the “changes in body weight (%)” value [2] was “significant reduction in weight was observed”, the “changes in body weight (%)” value ([3]; leptin 10 mg/kg of body weight intraperitoneally) was “significant reduction in weight was not observed” and the “changes in body weight (%)” value ([3]; leptin 50 mg/kg of body weight intraperitoneally) was “significant reduction in weight was not observed”. For the same molecule, the “changes in body weight (%)” value [4] was “significant reduction in weight was observed” and the “changes in body weight (%)” value [5] was “significant reduction in weight was not observed”.
